Test results published in patent publication US4229204A, “Trifluoromethylphenyl isoxazolyl benzoates” (Monsanto Company, priority 1978, dated 1980).

Columns and labels:
Assay type in all cases: in vivo
grain sorghum = assay: Growth regulation of grain sorghum (Table IX); settings: 250 ppm
From the text: The compound of Example Number 3 was also applied to four-week old grain sorghum at a rate of 250 ppm.

[1] = test system: mixture of Kentucky Bluegrass, Creeping Red Fescue and Chewings Fescue; assay: Growth regulation of lawn grasses (Table VIII)
Protocol: The compound of Example Number 3 was tested on various lawn grasses as follows. A mixture of Kentucky Bluegrass, Creeping Red Fescue and Chewings Fescue were planted in a good grade of top soil in plastic pots. Seven to ten days after germination, the plants were treated with the active ingredient to which a surfactant had been added by spraying the plants until they were wet with various concentrations.

Yellow Nutsedge [2] = assay: Post-emergent herbicidal test; settings: 4 WAT, 11.2 kg/h; further: ranges in brackets are in %
Protocol: (§1) The post-emergent tests were conducted as follows:
(§2) The active ingredients are applied in spray form to two or three week old specimens of various plant species. The spray, a solution or wettable powder suspension containing the appropriate rate of active ingredient to give the desired test rate and a surfactant, is applied to the plants.
(§3) The compounds were also tested by utilizing the above procedure on the following plant species: […]

Cocklebur [3] = assay: Post-emergent herbicidal test; further: ranges in brackets are in %
Protocol: as §1, §2, §3

Lambsquarters = assay: Post-emergent herbicidal test; further: ranges in brackets are in %
Protocol: as §1, §2, §3

Downy Brome = assay: Post-emergent herbicidal test; further: ranges in brackets are in %
Protocol: as §1, §2, §3

Smartweed = assay: Post-emergent herbicidal test; further: ranges in brackets are in %
Protocol: as §1, §2, §3

Canada Thistle [4] = assay: Post-emergent herbicidal test; settings: 4 WAT, 11.2 kg/h; further: ranges in brackets are in %
Protocol: as §1, §2, §3

Johnsongrass = assay: Post-emergent herbicidal test; settings: 4 WAT, 11.2 kg/h; further: ranges in brackets are in %
Protocol: as §1, §2, §3

Quackgrass [5] = assay: Post-emergent herbicidal test; settings: 4 WAT, 11.2 kg/h; further: ranges in brackets are in %
Protocol: as §1, §2, §3

Velvetleaf [6] = assay: Post-emergent herbicidal test; further: ranges in brackets are in %
Protocol: as §1, §2, §3

Barnyardgrass [7] = assay: Post-emergent herbicidal test; further: ranges in brackets are in %
Protocol: as §1, §2, §3

Morningglory [8] = assay: Post-emergent herbicidal test; further: ranges in brackets are in %
Protocol: as §1, §2, §3

Bluebell rice = assay: Growth regulation of rice; settings: four-week old rice, 250 ppm, both at 3 weeks and 7 weeks after treatment
From the text: The compound of Example Number 3 was applied to four-week old Bluebell rice at a rate of 250 ppm.

cheyenne wheat = assay: Growth regulation of wheat (Table XI)
From the text: Table XI summarizes observations made when the compound of Example Number 3 was applied to cheyenne wheat.

Wheat = assay: Pre-emergent herbicidal test; settings: 4 WAT; further: ranges in brackets are in %
Protocol: (§4) The pre-emergent test was conducted as follows:
(§5) A good grade of top soil was placed in aluminum pans and compacted to a depth of three-eighths to one-half inch from the top of the pan. On the top of the soil was placed a predetermined number of seeds or vegetative propagules of various plant species which were pressed into the soil surface. The soil required to level fill the pans after seeding or adding vegetative propagules was weighed into a pan. A known amount of the active ingredient applied in a solvent or as a wettable powder and the soil were thoroughly mixed, and used as a cover layer for prepared pans.
(§6) The herbicidal rating was obtained by means of a fixed scale based on the percent injury of each plant species. The ratings are defined as follows: […]

Rice = assay: Pre-emergent herbicidal test; settings: 4 WAT; further: ranges in brackets are in %
Protocol: as §4, §5, §6

Wild Buckwheat = assay: Pre-emergent herbicidal test; settings: 4 WAT; further: ranges in brackets are in %
Protocol: as §4, §5, §6

Soybean = assay: Pre-emergent herbicidal test; settings: 4 WAT; further: ranges in brackets are in %
Protocol: as §4, §5, §6

Hemp Sesbania = assay: Pre-emergent herbicidal test; settings: 4 WAT; further: ranges in brackets are in %
Protocol: as §4, §5, §6

Panicum Spp. = assay: Pre-emergent herbicidal test; settings: 4 WAT; further: ranges in brackets are in %
Protocol: as §4, §5, §6

Sugarbeet = assay: Pre-emergent herbicidal test; settings: 4 WAT; further: ranges in brackets are in %
Protocol: as §4, §5, §6

Sorghum = assay: Pre-emergent herbicidal test; settings: 4 WAT; further: ranges in brackets are in %
Protocol: as §4, §5, §6

Crabgrass = assay: Pre-emergent herbicidal test; settings: 4 WAT; further: ranges in brackets are in %
Protocol: as §4, §5, §6

Yellow Nutsedge [9] = assay: Pre-emergent herbicidal test; settings: 2 WAT, 11.2 kg/h; further: ranges in brackets are in %
Protocol: as §4, §5, §6, §3

Cocklebur [10] = assay: Pre-emergent herbicidal test; further: ranges in brackets are in %
Protocol: as §4, §5, §6, §3

Canada Thistle [11] = assay: Pre-emergent herbicidal test; settings: 2 WAT, 11.2 kg/h; further: ranges in brackets are in %
Protocol: as §4, §5, §6, §3

Quackgrass [12] = assay: Pre-emergent herbicidal test; settings: 2 WAT, 11.2 kg/h; further: ranges in brackets are in %
Protocol: as §4, §5, §6, §3

Velvetleaf [13] = assay: Pre-emergent herbicidal test; further: ranges in brackets are in %
Protocol: as §4, §5, §6, §3

Barnyardgrass [14] = assay: Pre-emergent herbicidal test; further: ranges in brackets are in %
Protocol: as §4, §5, §6, §3

Morningglory [15] = assay: Pre-emergent herbicidal test; further: ranges in brackets are in %
Protocol: as §4, §5, §6, §3

COC(=O)c1ccccc1-c1cc(-c2cccc(C(F)(F)F)c2)no1 [Example 3, Methyl 2-[3-[3-(Trifluoromethyl)-Phenyl]-5-Isoxazolyl]Benzoate]
Plant Height (grain sorghum; 3 weeks after treatment): 91 % of Control
Other Observations (grain sorghum; 7 weeks after treatment): Necrosis.
Plant Height (grain sorghum; 7 weeks after treatment): 81 % of Control
Height ([1]; 10 ppm, 3 weeks after treatment): 102 % of Control
Height ([1]; 10 ppm, 9 weeks after treatment): 93 % of Control
Height ([1]; 50 ppm, 3 weeks after treatment): 94 % of Control
Height ([1]; 50 ppm, 9 weeks after treatment): 86 % of Control
Height ([1]; 250 ppm, 3 weeks after treatment): 66 % of Control
Height ([1]; 250 ppm, 9 weeks after treatment): 57 % of Control
herbicidal rating (Yellow Nutsedge [2]): 0 (0-24)
herbicidal rating (Cocklebur [3]; 2 WAT, 1.12 kg/h): 1 (25-49)
herbicidal rating (Cocklebur [3]; 4 WAT, 5.60 kg/h): 1 (25-49)
herbicidal rating (Cocklebur [3]; 4 WAT, 11.2 kg/h): 2 (50-74)
herbicidal rating (Lambsquarters; 2 WAT, 1.12 kg/h): 1 (25-49)
herbicidal rating (Lambsquarters; 4 WAT, 5.60 kg/h): 1 (25-49)
herbicidal rating (Lambsquarters; 4 WAT, 11.2 kg/h): 4 (100)
herbicidal rating (Downy Brome; 2 WAT, 1.12 kg/h): 0 (0-24)
herbicidal rating (Downy Brome; 4 WAT, 5.60 kg/h): 0 (0-24)
herbicidal rating (Downy Brome; 4 WAT, 11.2 kg/h): 2 (50-74)
herbicidal rating (Smartweed; 2 WAT, 1.12 kg/h): 1 (25-49)
herbicidal rating (Smartweed; 4 WAT, 5.60 kg/h): 1 (25-49)
herbicidal rating (Smartweed; 4 WAT, 11.2 kg/h): 4 (100)
herbicidal rating (Canada Thistle [4]): 2 (50-74)
herbicidal rating (Johnsongrass): 2 (50-74)
herbicidal rating (Quackgrass [5]): 3 (75-99)
herbicidal rating (Velvetleaf [6]; 2 WAT, 1.12 kg/h): 1 (25-49)
herbicidal rating (Velvetleaf [6]; 4 WAT, 5.60 kg/h): 1 (25-49)
herbicidal rating (Velvetleaf [6]; 4 WAT, 11.2 kg/h): 2 (50-74)
herbicidal rating (Barnyardgrass [7]; 2 WAT, 1.12 kg/h): 0 (0-24)
herbicidal rating (Barnyardgrass [7]; 4 WAT, 5.60 kg/h): 0 (0-24)
herbicidal rating (Barnyardgrass [7]; 4 WAT, 11.2 kg/h): 3 (75-99)
herbicidal rating (Morningglory [8]; 2 WAT, 1.12 kg/h): 1 (25-49)
herbicidal rating (Morningglory [8]; 4 WAT, 5.60 kg/h): 1 (25-49)
herbicidal rating (Morningglory [8]; 4 WAT, 11.2 kg/h): 2 (50-74)
Observations compared with the control (Bluebell rice): stature reduction and tillering
Plant Height (cheyenne wheat; time of treatment 15 days, 250 ppm, 3 weeks after treatment): 80 % of Control
Plant Height (cheyenne wheat; time of treatment 15 days, 250 ppm, 6 weeks after treatment): 93 % of Control
Plant Height (cheyenne wheat; time of treatment 42 days, 10 ppm, 3 weeks after treatment): 113 % of Control
Plant Height (cheyenne wheat; time of treatment 42 days, 50 ppm, 3 weeks after treatment): 112 % of Control
Plant Height (cheyenne wheat; time of treatment 42 days, 250 ppm, 3 weeks after treatment): 109 % of Control
herbicidal rating (Wheat; 1.12 kg/h): 1 (25-49)
herbicidal rating (Wheat; 5.60 kg/h): 2 (50-74)
herbicidal rating (Rice; 1.12 kg/h): 3 (75-100)
herbicidal rating (Rice; 5.60 kg/h): 3 (75-100)
herbicidal rating (Wild Buckwheat; 1.12 kg/h): 2 (50-74)
herbicidal rating (Wild Buckwheat; 5.60 kg/h): 3 (75-100)
herbicidal rating (Soybean; 1.12 kg/h): 2 (50-74)
herbicidal rating (Soybean; 5.60 kg/h): 3 (75-100)
herbicidal rating (Hemp Sesbania; 1.12 kg/h): 3 (75-100)
herbicidal rating (Hemp Sesbania; 5.60 kg/h): 3 (75-100)
herbicidal rating (Panicum Spp.; 1.12 kg/h): 2 (50-74)
herbicidal rating (Panicum Spp.; 5.60 kg/h): 3 (75-100)
herbicidal rating (Sugarbeet; 1.12 kg/h): 2 (50-74)
herbicidal rating (Sugarbeet; 5.60 kg/h): 3 (75-100)
herbicidal rating (Sorghum; 1.12 kg/h): 2 (50-74)
herbicidal rating (Sorghum; 5.60 kg/h): 3 (75-100)
herbicidal rating (Crabgrass; 1.12 kg/h): 2 (50-74)
herbicidal rating (Crabgrass; 5.60 kg/h): 2 (50-74)
herbicidal rating (Yellow Nutsedge [9]): 2 (50-74)
herbicidal rating (Cocklebur [10]; 2 WAT, 11.2 kg/h): 2 (50-74)
herbicidal rating (Cocklebur [10]; 4 WAT, 1.12 kg/h): 1 (25-49)
herbicidal rating (Cocklebur [10]; 4 WAT, 5.60 kg/h): 2 (50-74)
herbicidal rating (Canada Thistle [11]): 3 (75-100)
herbicidal rating (Quackgrass [12]): 3 (75-100)
herbicidal rating (Velvetleaf [13]; 2 WAT, 11.2 kg/h): 2 (50-74)
herbicidal rating (Velvetleaf [13]; 4 WAT, 1.12 kg/h): 1 (25-49)
herbicidal rating (Velvetleaf [13]; 4 WAT, 5.60 kg/h): 2 (50-74)
herbicidal rating (Barnyardgrass [14]; 2 WAT, 11.2 kg/h): 3 (75-100)
herbicidal rating (Barnyardgrass [14]; 4 WAT, 1.12 kg/h): 3 (75-100)
herbicidal rating (Barnyardgrass [14]; 4 WAT, 5.60 kg/h): 3 (75-100)
herbicidal rating (Morningglory [15]; 2 WAT, 11.2 kg/h): 2 (50-74)
herbicidal rating (Morningglory [15]; 4 WAT, 1.12 kg/h): 2 (50-74)
herbicidal rating (Morningglory [15]; 4 WAT, 5.60 kg/h): 3 (75-100)
